From ChEMBL document CHEMBL1127710 (Bioorg Med Chem Lett, 1994)

Tests used:
Phosphodiesterase 4 [1] = target: T1, Phosphodiesterase 4 (Homo sapiens, UniProt P27815+Q08499+Q07343+Q08493); test: Inhibition of cAMP-specific Phosphodiesterase 4 (PDE IV); type: protein assay
Phosphodiesterase 4 [2] = target: T1, Phosphodiesterase 4; test: Inhibition of rolipram binding to Phosphodiesterase 4; type: protein assay

| Compound | Ki (Phosphodiesterase 4 [1]) | Kd (Phosphodiesterase 4 [2]) |
| --- | --- | --- |
| O=C1CC(c2ccc3c(c2)OCO3)CN1 (configuration not stated) | > 100 µM | > 100 µM |
| O=C1CC(c2ccc3c(c2)OC2(CCCCC2)O3)CN1 (configuration not stated) | 63.9 µM | 16.5 µM |
| O=C1CC(c2ccc3c(c2)OCCO3)CN1 (configuration not stated) | > 100 µM | > 100 µM |

Now from value to compound:

| Ki (Phosphodiesterase 4 [1]) | Kd (Phosphodiesterase 4 [2]) | Compound |
| --- | --- | --- |
| 1.17 µM | 0.21 µM | O=C1CC(c2cc3c(c(OC4CCCC4)c2)OCCC3)CN1 (configuration not stated) |
| 0.26 µM | 0.03 µM | O=C1CC(c2cc(OC3CCCC3)c3occc3c2)CN1 (configuration not stated) |
| 3.69 µM | 4 µM | O=C1CC(c2cc3c(c(OC4CCCC4)c2)OCC3)CN1 (configuration not stated) |
